Reference: ChEMBL document CHEMBL4507310, “Data for DCP probe A-1211212” (2021)

Assays:
[1] = biological target: T1, Alpha-2B adrenergic receptor (Homo sapiens) (UniProt P18089); assay: Alpha2B (h) Eurofins-Cerep binding assay; set-up: ligand concentration 2.5 nM; settings: filed as antagonist, Compound concentration 10.0 uM
T1 sequence (whole entry): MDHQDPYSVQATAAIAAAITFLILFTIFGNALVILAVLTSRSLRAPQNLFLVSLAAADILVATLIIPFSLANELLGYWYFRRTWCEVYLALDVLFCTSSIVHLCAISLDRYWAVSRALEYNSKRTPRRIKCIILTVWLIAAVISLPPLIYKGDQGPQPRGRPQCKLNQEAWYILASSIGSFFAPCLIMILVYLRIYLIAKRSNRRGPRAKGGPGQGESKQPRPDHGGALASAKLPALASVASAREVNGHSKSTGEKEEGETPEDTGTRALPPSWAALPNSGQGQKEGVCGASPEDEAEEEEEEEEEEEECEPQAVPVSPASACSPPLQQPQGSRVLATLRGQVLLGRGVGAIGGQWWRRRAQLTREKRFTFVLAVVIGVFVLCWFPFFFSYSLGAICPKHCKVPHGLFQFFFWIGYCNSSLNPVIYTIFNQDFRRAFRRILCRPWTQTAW

[2] = biological target: Histamine H1 receptor (Homo sapiens) (UniProt P35367); assay: H1 (h) Eurofins-Cerep binding assay; set-up: ligand concentration 1 nM; settings: filed as antagonist, Compound concentration 10.0 uM
[3] = biological target: T2, 5-hydroxytryptamine receptor 3A (Homo sapiens) (UniProt P46098); assay: 5-HT3 (h) Eurofins-Cerep binding assay; set-up: ligand concentration 0.5 nM; settings: filed as antagonist, Compound concentration 10.0 uM
T2 sequence (whole entry): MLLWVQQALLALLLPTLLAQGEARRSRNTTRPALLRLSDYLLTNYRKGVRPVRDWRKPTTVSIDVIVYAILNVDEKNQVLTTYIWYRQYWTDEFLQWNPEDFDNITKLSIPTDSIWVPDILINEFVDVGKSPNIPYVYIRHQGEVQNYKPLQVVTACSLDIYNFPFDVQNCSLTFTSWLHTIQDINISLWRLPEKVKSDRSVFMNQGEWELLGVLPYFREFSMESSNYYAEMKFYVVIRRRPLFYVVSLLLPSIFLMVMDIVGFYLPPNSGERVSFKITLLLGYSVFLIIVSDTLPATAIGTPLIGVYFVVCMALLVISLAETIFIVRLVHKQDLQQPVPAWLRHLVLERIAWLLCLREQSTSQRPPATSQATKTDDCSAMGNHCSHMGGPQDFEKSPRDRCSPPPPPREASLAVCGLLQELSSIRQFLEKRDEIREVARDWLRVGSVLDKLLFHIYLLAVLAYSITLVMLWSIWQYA

[4] = biological target: Protein-tyrosine kinase 6 (Homo sapiens) (UniProt Q13882); settings: Compound concentration 1000.0 nM
Chain of Protein-tyrosine kinase 6 (Homo sapiens) (Q13882 whole entry, looked up): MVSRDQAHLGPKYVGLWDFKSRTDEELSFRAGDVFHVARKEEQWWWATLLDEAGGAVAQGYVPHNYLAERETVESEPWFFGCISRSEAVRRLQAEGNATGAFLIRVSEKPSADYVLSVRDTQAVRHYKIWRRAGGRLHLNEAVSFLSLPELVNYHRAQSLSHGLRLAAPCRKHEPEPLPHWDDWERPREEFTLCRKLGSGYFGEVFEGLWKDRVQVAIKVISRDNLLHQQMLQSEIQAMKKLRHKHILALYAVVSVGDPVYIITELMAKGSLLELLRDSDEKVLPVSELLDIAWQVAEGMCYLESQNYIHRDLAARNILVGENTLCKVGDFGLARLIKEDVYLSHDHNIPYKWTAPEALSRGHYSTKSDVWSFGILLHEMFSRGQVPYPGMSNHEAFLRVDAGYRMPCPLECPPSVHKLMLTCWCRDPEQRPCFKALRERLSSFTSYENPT

[5] = biological target: Serine/threonine-protein kinase BRSK1 (Homo sapiens) (UniProt Q8TDC3); settings: Compound concentration 1000.0 nM
[6] = biological target: Calcium/calmodulin-dependent protein kinase type 1 (Homo sapiens) (UniProt Q14012); settings: Compound concentration 1000.0 nM
[7] = biological target: Cyclin-dependent kinase 11B (Homo sapiens) (UniProt P21127); settings: Compound concentration 1000.0 nM
Chain of Cyclin-dependent kinase 11B (Homo sapiens) (P21127 whole entry): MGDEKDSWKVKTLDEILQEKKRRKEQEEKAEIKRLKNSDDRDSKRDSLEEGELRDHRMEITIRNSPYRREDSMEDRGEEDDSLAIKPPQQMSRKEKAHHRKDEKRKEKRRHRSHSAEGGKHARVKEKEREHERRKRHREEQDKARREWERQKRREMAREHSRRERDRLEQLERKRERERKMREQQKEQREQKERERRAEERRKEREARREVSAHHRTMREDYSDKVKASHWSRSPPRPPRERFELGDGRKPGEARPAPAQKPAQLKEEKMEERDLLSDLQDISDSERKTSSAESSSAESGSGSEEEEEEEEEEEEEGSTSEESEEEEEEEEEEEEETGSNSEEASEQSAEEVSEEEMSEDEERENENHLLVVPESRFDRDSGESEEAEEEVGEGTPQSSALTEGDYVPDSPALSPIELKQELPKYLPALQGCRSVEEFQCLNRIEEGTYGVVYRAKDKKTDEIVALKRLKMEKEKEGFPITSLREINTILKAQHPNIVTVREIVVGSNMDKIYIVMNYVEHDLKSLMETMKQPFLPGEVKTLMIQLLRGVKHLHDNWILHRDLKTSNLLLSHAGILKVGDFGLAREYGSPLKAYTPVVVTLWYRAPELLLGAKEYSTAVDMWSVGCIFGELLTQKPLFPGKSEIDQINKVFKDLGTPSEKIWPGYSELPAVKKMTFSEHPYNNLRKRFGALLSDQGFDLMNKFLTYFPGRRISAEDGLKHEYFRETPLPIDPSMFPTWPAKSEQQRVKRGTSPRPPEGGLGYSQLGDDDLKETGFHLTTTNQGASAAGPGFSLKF

[8] = biological target: Macrophage colony-stimulating factor 1 receptor (Homo sapiens) (UniProt P07333); settings: Compound concentration 1000.0 nM
[9] = biological target: Ephrin type-A receptor 5 (Homo sapiens) (UniProt P54756); settings: Compound concentration 1000.0 nM
[10] = biological target: Rhodopsin kinase GRK1 (Homo sapiens) (UniProt Q15835); settings: Compound concentration 1000.0 nM
[11] = biological target: Mast/stem cell growth factor receptor Kit (Homo sapiens) (UniProt P10721); settings: Compound concentration 1000.0 nM
[12] = biological target: Serine/threonine-protein kinase 10 (Homo sapiens) (UniProt O94804); settings: Compound concentration 1000.0 nM
[13] = biological target: MAP kinase-activated protein kinase 5 (Homo sapiens) (UniProt Q8IW41); settings: Compound concentration 1000.0 nM
[14] = biological target: Mitogen-activated protein kinase kinase kinase 10 (Homo sapiens) (UniProt Q02779); settings: Compound concentration 1000.0 nM
Chain of Mitogen-activated protein kinase kinase kinase 10 (Homo sapiens) (Q02779 whole entry, looked up, canonical isoform): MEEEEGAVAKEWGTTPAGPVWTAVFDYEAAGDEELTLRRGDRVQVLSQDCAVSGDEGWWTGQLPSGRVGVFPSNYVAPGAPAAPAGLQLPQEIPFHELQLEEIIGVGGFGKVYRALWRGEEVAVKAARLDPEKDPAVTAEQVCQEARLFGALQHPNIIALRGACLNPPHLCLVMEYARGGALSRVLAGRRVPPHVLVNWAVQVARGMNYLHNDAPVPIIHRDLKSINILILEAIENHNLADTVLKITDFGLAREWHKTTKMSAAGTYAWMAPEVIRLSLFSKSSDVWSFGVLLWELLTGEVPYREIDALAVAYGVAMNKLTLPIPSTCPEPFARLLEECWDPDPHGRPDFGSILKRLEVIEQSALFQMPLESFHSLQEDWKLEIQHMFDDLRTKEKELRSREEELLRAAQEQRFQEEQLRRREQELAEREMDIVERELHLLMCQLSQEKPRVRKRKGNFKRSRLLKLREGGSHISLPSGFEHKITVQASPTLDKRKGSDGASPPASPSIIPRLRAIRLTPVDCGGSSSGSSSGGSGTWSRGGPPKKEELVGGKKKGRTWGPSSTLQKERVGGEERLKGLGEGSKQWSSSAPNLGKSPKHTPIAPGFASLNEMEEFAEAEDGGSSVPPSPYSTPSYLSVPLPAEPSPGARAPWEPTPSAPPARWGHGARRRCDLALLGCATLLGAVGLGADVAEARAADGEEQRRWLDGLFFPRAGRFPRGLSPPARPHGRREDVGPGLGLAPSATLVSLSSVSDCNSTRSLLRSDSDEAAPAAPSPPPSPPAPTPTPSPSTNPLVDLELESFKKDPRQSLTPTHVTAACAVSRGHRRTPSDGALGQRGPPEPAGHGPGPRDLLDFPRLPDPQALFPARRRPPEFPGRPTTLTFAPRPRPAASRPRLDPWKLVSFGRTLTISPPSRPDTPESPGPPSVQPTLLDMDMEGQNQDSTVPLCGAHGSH

[15] = system: Phosphatidylinositol 4,5-bisphosphate 3-kinase catalytic subunit alpha isoform (Homo sapiens), P42336 [E545K]; settings: Compound concentration 1000.0 nM
Chain of Phosphatidylinositol 4,5-bisphosphate 3-kinase catalytic subunit alpha isoform (Homo sapiens), P42336 [E545K] (P42336 whole entry E545K, canonical isoform): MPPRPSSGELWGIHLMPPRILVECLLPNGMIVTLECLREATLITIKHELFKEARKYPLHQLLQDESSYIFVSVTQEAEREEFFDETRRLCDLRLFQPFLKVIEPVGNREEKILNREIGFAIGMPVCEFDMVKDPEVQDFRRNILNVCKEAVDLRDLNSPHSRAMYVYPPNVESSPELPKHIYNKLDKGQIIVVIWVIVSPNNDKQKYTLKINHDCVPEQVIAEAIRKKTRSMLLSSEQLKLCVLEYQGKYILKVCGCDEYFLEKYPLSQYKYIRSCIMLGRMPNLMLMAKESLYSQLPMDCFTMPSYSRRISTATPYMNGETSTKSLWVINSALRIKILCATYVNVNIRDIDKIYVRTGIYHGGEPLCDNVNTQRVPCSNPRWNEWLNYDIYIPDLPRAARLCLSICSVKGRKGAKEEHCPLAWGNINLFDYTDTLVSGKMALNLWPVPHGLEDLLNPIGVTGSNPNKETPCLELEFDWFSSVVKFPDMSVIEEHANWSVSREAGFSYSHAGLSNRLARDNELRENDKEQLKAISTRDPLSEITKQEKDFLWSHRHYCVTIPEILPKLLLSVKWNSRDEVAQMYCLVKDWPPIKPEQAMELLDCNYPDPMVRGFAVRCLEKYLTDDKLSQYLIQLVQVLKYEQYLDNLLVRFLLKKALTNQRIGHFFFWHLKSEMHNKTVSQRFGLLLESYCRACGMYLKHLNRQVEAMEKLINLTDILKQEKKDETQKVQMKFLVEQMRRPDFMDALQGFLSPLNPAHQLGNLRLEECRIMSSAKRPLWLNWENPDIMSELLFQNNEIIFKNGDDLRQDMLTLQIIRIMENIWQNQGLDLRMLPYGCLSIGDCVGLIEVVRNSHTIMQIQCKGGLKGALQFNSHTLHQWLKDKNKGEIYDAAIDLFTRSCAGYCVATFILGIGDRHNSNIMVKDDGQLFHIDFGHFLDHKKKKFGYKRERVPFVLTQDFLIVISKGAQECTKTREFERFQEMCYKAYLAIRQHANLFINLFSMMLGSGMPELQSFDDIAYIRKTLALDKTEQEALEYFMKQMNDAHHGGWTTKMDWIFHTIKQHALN

[16] = system: Phosphatidylinositol 4,5-bisphosphate 3-kinase catalytic subunit alpha isoform (Homo sapiens), P42336 [H1047Y]; settings: Compound concentration 1000.0 nM
Chain of Phosphatidylinositol 4,5-bisphosphate 3-kinase catalytic subunit alpha isoform (Homo sapiens), P42336 [H1047Y] (P42336 whole entry H1047Y, canonical isoform): as the sequence (P42336 whole entry E545K, canonical isoform) above, with K545E, H1047Y counted along it

[17] = system: Proto-oncogene tyrosine-protein kinase receptor Ret (Homo sapiens), P07949 [M918T]; settings: Compound concentration 1000.0 nM
[18] = biological target: Ribosomal protein S6 kinase alpha-4 (Homo sapiens) (UniProt O75676); settings: Compound concentration 1000.0 nM
[19] = biological target: Ribosomal protein S6 kinase alpha-1 (Homo sapiens) (UniProt Q15418); settings: Compound concentration 1000.0 nM
Chain of Ribosomal protein S6 kinase alpha-1 (Homo sapiens) (Q15418 whole entry): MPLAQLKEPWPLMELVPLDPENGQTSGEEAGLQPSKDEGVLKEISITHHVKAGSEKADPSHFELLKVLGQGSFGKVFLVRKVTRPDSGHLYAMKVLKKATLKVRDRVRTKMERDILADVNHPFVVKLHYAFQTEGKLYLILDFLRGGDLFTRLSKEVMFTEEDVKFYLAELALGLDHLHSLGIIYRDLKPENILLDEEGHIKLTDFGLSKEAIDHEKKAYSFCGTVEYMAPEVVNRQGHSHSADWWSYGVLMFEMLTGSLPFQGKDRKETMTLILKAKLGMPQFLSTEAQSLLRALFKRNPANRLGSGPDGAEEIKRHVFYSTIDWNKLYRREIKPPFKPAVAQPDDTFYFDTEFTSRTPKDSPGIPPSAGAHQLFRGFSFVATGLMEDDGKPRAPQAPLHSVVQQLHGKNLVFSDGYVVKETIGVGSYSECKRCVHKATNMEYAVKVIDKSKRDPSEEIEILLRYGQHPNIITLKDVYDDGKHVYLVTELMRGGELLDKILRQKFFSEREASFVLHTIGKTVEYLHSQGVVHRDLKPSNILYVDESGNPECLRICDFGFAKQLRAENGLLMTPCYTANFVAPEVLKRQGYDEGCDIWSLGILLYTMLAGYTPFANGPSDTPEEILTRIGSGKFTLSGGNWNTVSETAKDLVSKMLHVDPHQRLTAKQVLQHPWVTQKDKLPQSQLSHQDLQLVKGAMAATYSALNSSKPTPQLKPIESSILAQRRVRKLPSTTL

[20] = biological target: Ribosomal protein S6 kinase alpha-1 (Homo sapiens) (UniProt Q15418); settings: Compound concentration 1000.0 nM; remark: listed apart in the source
[21] = biological target: STE20-like serine/threonine-protein kinase (Homo sapiens) (UniProt Q9H2G2); settings: Compound concentration 1000.0 nM
[22] = biological target: Tyrosine-protein kinase SYK (Homo sapiens) (UniProt P43405); settings: Compound concentration 1000.0 nM
[23] = biological target: Non-receptor tyrosine-protein kinase TNK1 (Homo sapiens) (UniProt Q13470); settings: Compound concentration 1000.0 nM
Chain of Non-receptor tyrosine-protein kinase TNK1 (Homo sapiens) (Q13470 whole entry): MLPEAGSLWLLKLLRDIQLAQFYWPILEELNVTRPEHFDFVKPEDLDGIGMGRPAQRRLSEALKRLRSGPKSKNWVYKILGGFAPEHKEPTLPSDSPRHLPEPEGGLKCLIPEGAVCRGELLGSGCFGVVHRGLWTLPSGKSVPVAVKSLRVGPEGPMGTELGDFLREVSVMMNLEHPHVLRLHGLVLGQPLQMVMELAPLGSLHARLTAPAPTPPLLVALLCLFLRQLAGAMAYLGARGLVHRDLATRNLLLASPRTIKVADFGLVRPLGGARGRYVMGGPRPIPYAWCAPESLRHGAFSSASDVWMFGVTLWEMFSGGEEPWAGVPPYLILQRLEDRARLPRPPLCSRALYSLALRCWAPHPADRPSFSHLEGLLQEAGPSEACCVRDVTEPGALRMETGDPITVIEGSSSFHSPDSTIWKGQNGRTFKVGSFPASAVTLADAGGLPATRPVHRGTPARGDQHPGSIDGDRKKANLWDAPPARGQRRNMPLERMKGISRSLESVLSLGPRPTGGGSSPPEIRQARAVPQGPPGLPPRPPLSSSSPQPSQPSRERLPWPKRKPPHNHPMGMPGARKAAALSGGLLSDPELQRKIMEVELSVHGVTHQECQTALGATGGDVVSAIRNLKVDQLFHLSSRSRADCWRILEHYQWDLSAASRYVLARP

[24] = biological target: Wee1-like protein kinase (Homo sapiens) (UniProt P30291); settings: Compound concentration 1000.0 nM
[25] = biological target: GABA-A receptor; anion channel (Rattus norvegicus) (UniProt O09028+P15431+P18506+P18508+P19969+P20236+P23574+P23576+P28471+P28473+P30191+P62813+P63079+P63138+Q91ZM7+Q9ES14); settings: Compound concentration 10.0 uM
[26] = biological target: Sigma non-opioid intracellular receptor 1 (Homo sapiens) (UniProt Q99720); settings: Compound concentration 10.0 uM
Chain of Sigma non-opioid intracellular receptor 1 (Homo sapiens) (Q99720 whole entry): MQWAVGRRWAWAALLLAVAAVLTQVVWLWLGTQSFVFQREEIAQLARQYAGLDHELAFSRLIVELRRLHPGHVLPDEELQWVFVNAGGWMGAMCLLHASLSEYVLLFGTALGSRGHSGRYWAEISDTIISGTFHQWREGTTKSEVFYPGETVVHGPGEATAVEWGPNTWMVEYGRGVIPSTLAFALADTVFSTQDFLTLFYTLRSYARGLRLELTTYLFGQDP

SMILES | % Inhibition of Control Specific Binding (Mean n=2) [1] [%] | % Inhibition of Control Specific Binding (Mean n=2) [2] [%] | % Inhibition of Control Specific Binding (Mean n=2) [3] [%] | residual activity [4] [%] | residual activity [5] [%] | residual activity [6] [%] | residual activity [7] [%] | residual activity [8] [%] | residual activity [9] [%] | residual activity [10] [%] | residual activity [11] [%] | residual activity [12] [%] | residual activity [13] [%] | residual activity [14] [%] | residual activity [15] [%] | residual activity [16] [%] | residual activity [17] [%] | residual activity [18] [%] | residual activity [19] [%] | residual activity [20] [%] | further results
CO[C@H]1CC[C@H](CNc2ccc(S(=O)(=O)NC(=O)c3ccc(N4CCN(CC5=C(c6ccc(Cl)cc6)CC(C)(C)CC5)CC4)cc3Oc3cnc4[nH]ccc4c3)cc2[N+](=O)[O-])CC1 [A-1211212] | -20.1 | -2.2 | -6.1 | 100 | 100 | 88 | 98 | 86 | 78 | 72 | 91 | 74 | 82 | 89 | 96 | 70 | 85 | 90 | 69 | 73 | residual activity [21]: 67%; residual activity [22]: 62%; residual activity [23]: 81%; residual activity [24]: 100%; inhibition [25]: 23.6%; inhibition [26]: 49.8%
O=C(NS(=O)(=O)c1ccc(NCC2CCOCC2)c([N+](=O)[O-])c1)c1ccc(N2CCN(Cc3ccc(C(F)(F)F)cc3-c3ccc(Cl)cc3)CC2)cc1Oc1cnc2[nH]ccc2c1 [A-1210227] | -11.6 | 11.2 | 0.2 | 100 | 100 | 100 | 97 | 100 | 76 | 100 | 100 | 100 | 81 | 95 | 100 | 67 | 100 | 89 | 95 | 100 | residual activity [21]: 100%; residual activity [22]: 99%; residual activity [23]: 96%; residual activity [24]: 100%; inhibition [25]: 17.9%; inhibition [26]: 11.1%
